Reference: patent US20060134225A1, “Phosphate binder with reduced pill burden” (priority 2004, published 2006)

Columns and labels:
adult beagle dogs = experiment: Dog study, urine phosphate excretion; assay type: in vivo; conditions: oral capsules, 2250 mg elemental lanthanum twice daily
Experimental: The doses were administered 30 minutes after provision of food to the animals. At least 14 days washout was allowed between the crossover arms. Plasma was obtained pre-dose and 1.5, 3, 6, 7.5, 9, 12, 24, 36, 48, 60, and 72 hours after dosing and analyzed for lanthanum using ICP-MS. Urine was collected by catheterization before and approximately 24 hours after dosing and creatinine and phosphorus concentrations measured.

[1] = tested on: adult Sprague-Dawley rats; experiment: In vivo study in 5/6 nephrectomized rats, urine phosphorus excretion; parameters: species or system rat; conditions: 314 mg elemental lanthanum/kg/day oral, 14 days, compared to untreated rats
Experimental: Groups of six adult Sprague-Dawley rats underwent ⅚th nephrectomy in two stages over a period of 2 weeks and were then allowed to recover for a further two weeks prior to being randomized for treatment. The groups received vehicle (0.5% w/v carboxymethyl cellulose), or lanthanum oxycarbonate suspended in vehicle, once daily for 14 days by oral […] (10 ml/kg/day). The dose delivered 314 mg elemental lanthanum/kg/day. Dosing was carried out immediately before the dark (feeding) cycle on each day. Urine samples (24 hours) were collected prior to surgery, prior to the commencement of treatment, and twice weekly during the treatment period. Volume and phosphorus concentration were measured.
Feeding—During the acclimatization and surgery period, the animals were given Teklad phosphate sufficient diet (0.5% Ca, 0.3% P; Teklad No. TD85343), ad libitum. At the beginning of the treatment period, animals were pair fed based upon the average food consumption of the vehicle-treated animals the previous week.
5/6 Nephrectomy—After one week of acclimatization, all animals were subjected to 5/6 nephrectomy surgery. The surgery was performed in two stages. First, the two lower branches of the left renal artery were ligated. One week later, a right nephrectomy was performed. […]

Question: For `O=C([O-])[O-].[La+3].[OH-]` [compound A, LaCO3OH], which “urine phosphate excretion (marker of phosphorous binding)” value (adult beagle dogs) is on record?
Answer: reduction of urine phosphate excretion

Question: Which “urine phosphate excretion (marker of phosphorous binding)” value (adult beagle dogs) does the source give for `O=C([O-])[O-].[La+3].[La+3].[O-2].[O-2]` [compound B, La2O2CO3] here?
Answer: reduction of urine phosphate excretion

Question: Which “phosphorus excretion in urine (marker of dietary phosphorus binding)” value [1] does the source give for `O=C([O-])[O-].[La+3].[OH-]` [lanthanum carbonate hydroxide] here?
Answer: decrease in phosphorus excretion

Question: lanthanum oxycarbonate was tested. Which “phosphorus excretion in urine (marker of dietary phosphorus binding)” value [1] did it give?
Answer: decrease in phosphorus excretion
